Data from patent publication US12054562B2, “Cell-permeable inhibitory agent and methods of use thereof in treatment of cognitive and mood disorders” (priority 2015, dated 2024).

Legend:
[1] = target: T1, α1 subunit containing GABAA receptors (Mus musculus, UniProt P62812); experiment: Co-IP and WB, gephyrin and α1 subunit containing GABAA receptors; format: binding; settings: immunoprecipitates from Example 1, hippocampal tissue
T1 construct: α1 and α2 subunit containing GABAA receptors in the hippocampal tissue; from tissue; host or cells: hippocampus of adult mice
T1 sequence (P62812 28-455): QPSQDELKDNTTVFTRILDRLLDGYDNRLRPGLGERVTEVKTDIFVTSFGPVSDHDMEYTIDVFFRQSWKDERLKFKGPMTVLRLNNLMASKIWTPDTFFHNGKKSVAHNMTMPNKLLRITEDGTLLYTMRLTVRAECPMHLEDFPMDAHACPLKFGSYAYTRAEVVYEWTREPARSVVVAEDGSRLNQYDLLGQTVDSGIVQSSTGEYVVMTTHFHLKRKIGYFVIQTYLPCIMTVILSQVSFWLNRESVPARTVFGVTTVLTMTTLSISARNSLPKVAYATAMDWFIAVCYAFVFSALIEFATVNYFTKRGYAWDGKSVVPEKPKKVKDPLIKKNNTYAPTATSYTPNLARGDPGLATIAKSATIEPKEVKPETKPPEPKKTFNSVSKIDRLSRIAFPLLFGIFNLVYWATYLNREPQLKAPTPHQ

[2] = test system: α5GABAA receptor cell-surface expression; experiment: Receptor cell-surface ELISA assay in cultured hippocampal neurons; format: cell-based, mouse; settings: peptide 2 μM, 24 hrs, astrocyte-conditioned medium (etomidate 1 μM, 1 hr)
Procedure: This experimental cell culture model was used to test the effects of the inhibitory peptide on an overexpression of α5GABAA receptors on the surface of neurons. The medium from astrocytes that were treated with etomidate (1 μM, 1 hr) (conditioned medium) was collected, and the medium bathing cultured hippocampal neurons was exchanged with the astrocyte-conditioned medium. The cells were incubated at 37° C., 5% CO2 with the peptide or scramble peptide (2 μM). After 24 hrs incubation, the cells were used for receptor cell-surface ELISA assay. The cells were fixed in 4% paraformaldehyde for 20 min in the presence (permeabilized) or absence (non-permeabilized) of 1% Triton-X100. The cells, after 3 times wash with cold PBS and blocked with 5% bovine album solution, were incubated with a α5 antibody (Santa Cruz Biotech Inc.) at 4° C. overnight. The next day the cells were thoroughly washed with PBS and incubated with the horseradish peroxidase (HRP)-conjugated secondary antibody for 2 hrs. With HRP substrate added and color developed in the medium, the results were determined with microplate reader.
The cell surface expression of α5 subunit was presented as the ratio of the colorimetric reading under non-permeabilized conditions to those permeabilized conditions. Consistent with the previous report, etomidate increases α5GABAA receptor surface expression. This increase was blocked by the specific peptide, but not the scramble peptide (FIG. 6A).
For astrocyte culture, cortical astrocytes were isolated from embryonic day 18 (E18) mouse embryos. Cells were allowed to grow to confluence in MEM and 10% fetal bovine serum (FBS; Life Technologies, Grand Island, New York) for 14 d. Cells were then enzymatically dissociated with trypsin-EDTA (0.05%; Life Technologies, Grand Island, New York), and passaged three times to obtain a nearly pure astrocytic culture. Astrocytes were then plated at a density of 25,000 cells per dish. […]

## NYFTKRGWAWDGKKAL [inhibitory peptide]
[1]
  effects on α1 subunit containing GABAA receptors (gephyrin interaction): did not have any effects
[2]
  etomidate-induced increase in α5GABAA receptor surface expression: blocked
